From ChEMBL document CHEMBL5634086, “Small molecule inhibitors of NLRP3 inflammasome and GSK-3β in the management of traumatic brain injury: A review” (Eur J Med Chem, 2023)
pIC50: −log10 of the molar value. Each block holds one compound with its values, some of them ahead of it.

Columns and labels:
[1] = molecular target: NACHT, LRR and PYD domains-containing protein 3 (Homo sapiens, UniProt Q96P20); assay: Inhibition of NLRP3 inflammasome in LPS-induced […] cells assessed as reduction in IL-1beta release preincubated for 1 hr followed by ATP addition and measured after 30 mins by ELISA; format: cell-based
[2] = Inhibition of LPS/ATP induced IL-1beta release in human THP-1 cells at 10 uM pretreated with LPS for 3 hrs followed by compound addition for 1 hr prior to ATP addition for another 1 hr by ELISA; format: functional; parameters: scale not given: the % may be the effect or the level left; settings: time 2 hrs
[3] = molecular target: T1, Glycogen synthase kinase-3 beta (Homo sapiens, UniProt P49841); assay: Inhibition of GSK3beta (unknown origin) expressed in Sf9 cells incubated for 30 mins in presence of [gamma32P]ATP by scintillation counting method
[4] = molecular target: T1, Glycogen synthase kinase-3 beta; assay: Inhibition of GST-tagged GSK3beta (unknown origin)

T1 sequence (P49841 whole entry): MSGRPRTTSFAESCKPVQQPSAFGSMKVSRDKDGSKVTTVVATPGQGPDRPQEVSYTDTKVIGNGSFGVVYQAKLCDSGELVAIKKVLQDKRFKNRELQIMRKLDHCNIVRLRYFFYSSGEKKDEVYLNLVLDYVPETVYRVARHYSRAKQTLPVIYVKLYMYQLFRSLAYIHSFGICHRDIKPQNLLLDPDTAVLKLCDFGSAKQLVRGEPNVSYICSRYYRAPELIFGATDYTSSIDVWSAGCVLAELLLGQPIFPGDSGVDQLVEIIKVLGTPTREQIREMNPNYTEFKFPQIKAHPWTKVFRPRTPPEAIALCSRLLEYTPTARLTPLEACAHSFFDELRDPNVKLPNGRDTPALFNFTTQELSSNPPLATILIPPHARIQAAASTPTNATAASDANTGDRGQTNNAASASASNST
Sequence of NACHT, LRR and PYD domains-containing protein 3 (Q96P20 whole entry, the tested form may be a part): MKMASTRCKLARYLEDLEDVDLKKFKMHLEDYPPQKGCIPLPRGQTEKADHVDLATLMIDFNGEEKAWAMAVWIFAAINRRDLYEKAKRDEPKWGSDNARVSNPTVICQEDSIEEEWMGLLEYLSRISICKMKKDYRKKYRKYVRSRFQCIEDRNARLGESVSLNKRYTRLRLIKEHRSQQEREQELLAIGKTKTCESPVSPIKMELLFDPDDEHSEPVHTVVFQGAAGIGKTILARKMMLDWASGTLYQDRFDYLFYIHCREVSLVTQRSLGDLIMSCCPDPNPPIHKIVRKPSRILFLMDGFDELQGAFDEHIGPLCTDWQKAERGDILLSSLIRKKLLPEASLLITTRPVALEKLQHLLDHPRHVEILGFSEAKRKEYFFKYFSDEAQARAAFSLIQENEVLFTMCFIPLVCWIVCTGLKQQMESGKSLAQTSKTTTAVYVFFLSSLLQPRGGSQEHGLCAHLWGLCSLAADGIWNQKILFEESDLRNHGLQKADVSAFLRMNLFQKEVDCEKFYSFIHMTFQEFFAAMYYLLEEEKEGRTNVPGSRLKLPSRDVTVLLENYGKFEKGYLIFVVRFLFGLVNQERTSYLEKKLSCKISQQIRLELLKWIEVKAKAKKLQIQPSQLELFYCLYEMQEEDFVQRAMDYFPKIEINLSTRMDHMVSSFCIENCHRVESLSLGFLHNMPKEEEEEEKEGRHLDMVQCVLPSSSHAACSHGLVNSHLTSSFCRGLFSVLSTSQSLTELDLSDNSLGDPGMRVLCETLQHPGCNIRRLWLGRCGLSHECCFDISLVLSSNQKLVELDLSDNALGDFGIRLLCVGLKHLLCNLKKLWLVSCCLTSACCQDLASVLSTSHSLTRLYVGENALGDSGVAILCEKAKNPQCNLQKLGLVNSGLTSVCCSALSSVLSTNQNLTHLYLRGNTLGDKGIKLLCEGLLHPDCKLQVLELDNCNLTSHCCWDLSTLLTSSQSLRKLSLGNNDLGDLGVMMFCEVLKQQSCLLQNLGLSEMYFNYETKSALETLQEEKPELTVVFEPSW

pIC50 [1]: 5.30
SMILES: O=c1[nH]c(-c2ccc([N+](=O)[O-])cc2)nc2ccccc12

SMILES: c1cc2[nH]c(-c3cscn3)nc2cn1
Activity [2]: 30%

pIC50 [3]: 8.40 | pIC50 [4]: 8.40
SMILES: O=C1Cc2c([nH]c3ccc([N+](=O)[O-])cc23)-c2ncccc2N1
